Laboratory results taken from patent US20180256519A1, “COMPOSITION FOR PREVENTING OR TREATING MITOCHONDRIAL DISEASES CAUSED BY IMMUNOSUPPRESSANTS, AND IMMUNE DISEASES, CONTAINING METFORMIN” (THE CATHOLIC UNIVERSITY OF KOREA INDUSTRY-ACADEMIC …, priority 2015, published 2018).

Legend:
[1] = tested on: Synovial cells isolated from patients with rheumatoid arthritis (RA); assay: Measurement of mitochondrial respiration (oxygen consumption rate); format: cell-based, human; details: rapamycin 100 nM
Procedure: The present inventors examined the effect of metformin on rapamycin-induced mitochondrial respiration deterioration. The cells were treated with rapamycin (100 nM) alone or co-treated with rapamycin (100 nM) and metformin (1 mM), and then the mitochondrial respiratory rate was examined through the measurement of the oxygen consumption rate. Oligomycin and FCCP treatment conditions were the same.

[2] = tested on: NIH3T3 cells; assay: Analysis of mitochondrial content (MitoTracker staining); format: cell-based; details: 72-hr incubation; rapamycin 1 nM, metformin 200 uM or 1 mM
Procedure: The mitochondria were observed by fluorescent microscopy for each experimental condition. Specifically, the MitoTracker was diluted in DMEM medium to a concentration of 100 nM, and then added on the NIH3T3 plate, followed by incubation at 37° C. for 15 minutes and washing with PBS. Thereafter, for α-tubulin staining, the cells were fixed with acetone and methanol (1:1) for 15 minutes, and then washed with PBS for 15 minutes.

[3] = tested on: NIH3T3 cells; assay: Analysis of mitochondrial membrane potential (JC-1 staining); format: cell-based; details: 72-hr incubation; rapamycin 1 nM, metformin 200 uM or 1 mM
Procedure: For JC-1 staining, the cells were incubated in JC-1, which had been diluted in DMEM to a final concentration of 100 nM, at 37 °C for 15 minutes, and then the exchange into new DMEM medium was conducted, followed by observation by fluorescent microscopy.

[4] = tested on: Sprague-Dawley rats; assay: Rapamycin-induced diabetic symptoms and metformin co-administration in rats (body weight, urine volume, IPGTT, ITT); format: in vivo, rat
Procedure: As experimental animals, Sprague-Dawley rats with 200-220 grams were used. The animals were fed with a 0.05% low-salt diet, and the experiment was conducted for a total of 6 weeks while drugs were administered according to experimental conditions (FIG. 5). […] Rapamycin dissolved in olive oil was subcutaneously injected into the rapamycin administered alone group (Rapamycin) and the co-administered group (Rapa+Met) at a dose of 0.3 mg/kg of body weight every day for six weeks. Metformin was orally administered at a dose of 250 mg/kg of body weight every day for 2.5 weeks from the 3.5 weeks of rapamycin administration. Distilled water (DW, 3 mL/kg) instead of metformin was orally administered into the rapamycin administered alone group and the control group. The body weight and 24-hr urine volume of the control and experimental groups were measured six weeks after the start of the experiment FIGS. 6A and 6B. The urine volume was measured in the metabolic cage. The animals of each group were tested for the intraperitoneal glucose tolerance test (IPGTT) and the insulin tolerance test (ITT), and the change in blood glucose level over time was observed FIGS. 7A, 7B, 8A and 8B). The intraperitoneal glucose tolerance test (IPGTT) was performed by intraperitoneal administration of 1.5 g/kg of body weight of glucose after fasting. The insulin resistance test was carried out such that the blood glucose level was measured at 30-min intervals after subcutaneous injection of insulin at 0.8 U/kg of body weight following 5-hr fasting. The quantitative index (area under the curve of glucose, AUCg) was derived using a graph of blood glucose level change per hour, and was expressed as a bar graph. Data were expressed as mean value±standard deviation, and statistical significance was determined by student's t-test.

[5] = tested on: allogeneic reactive T cells; assay: Allogeneic reactive T cell proliferation, mixed lymphocyte reaction ([3H]-thymidine uptake); format: cell-based, mouse (Balb/c, C57BL/6); details: metformin 1000 uM, rapamycin 1 nM or 100 nM; 3 days
Procedure: CD4+ T cells (2×10^5 cells/well) from normal donors (Balb/c, responder) and splenocytes (2×10^5 cells/well) with T cells removed, which were derived from irradiated recipients (syngeneic) or donors (C57BL/ 6, stimulator, allogeneic), were added to each well of a 96-well plate, followed by mixed incubation. Here, for the allogeneic reaction, the cells were treated with metformin (1000 uM) and rapamycin (1 nM or 100 nM) according to experimental conditions, followed by incubation for 3 days. On the last day of the incubation, [^3H]-thymidine was added, followed by additional incubation for 18 hours, and the [^3H]-thymidine uptake of cells was measured by the Liquid Scintillation Counter (Beckman, USA), and expressed as cpm. Statistical assay was conducted by using Graph prism (t-test, ANOVA), and values of p<0.05 were considered statistically significant.

[6] = tested on: IFN-γ; assay: IFN-γ secretion by allogeneic reactive T cells in mixed lymphocyte reaction (ELISA); format: cell-based, mouse (Balb/c, C57BL/6); details: metformin 1000 μM, rapamycin 1 nM or 100 nM; 3 days
[7] = tested on: Splenocytes obtained from normal C57BL/6 mice; assay: MTT non-specific cytotoxicity in T cell activation conditions; format: cell-based; details: metformin 1000 μM, rapamycin 100 nM; 3 days; anti-CD3 0.5 μg/ml
Procedure: (§1) Splenocytes obtained from normal C57BL/6 mice were added at 2×10^5 cells in the 96-well plate, and treated with metformin (1000 μM) or rapamycin (100 nM) according to experimental conditions, followed by incubation for 3 days, under anti-CD3 activation conditions (0.5 μg/ml). For MTT analysis, 3-(4,5-dimethyl-thiazol-2-yl)-2,5-diphenyltetrazolium bromide was added 4 hours before cell harvest, followed by incubation for 4 hours, and then each well was treated with DMSO, and the absorbance was measured at the wavelength of 540 nm.

[8] = tested on: IL-17; assay: IL-17 secretion by splenocytes in T cell activation conditions (ELISA); format: cell-based, C57BL/6 mice; details: metformin 1000 uM, rapamycin 100 nM; 3 days; anti-CD3 0.5 μg/ml; vs Nil
Procedure: as §1
The cells were treated with metformin (1000 uM) or rapamycin (100 nM) according to experimental conditions, followed by incubation for 3 days, and then the amount of IL-17 present in the culture liquid was measured by ELISA.

[9] = tested on: Treg cells; assay: Treg cell activity in splenocytes under anti-CD3 activation (flow cytometry); format: cell-based, C57BL/6 mice; details: metformin 1000 μM, rapamycin 100 nM; 3 days; anti-CD3 0.5 μg/ml
Procedure: Splenocytes obtained from normal C57BL/6 mice were added at 1×10^6 cells in the 24-well plate, and treated with metformin (1000 μM) or rapamycin (100 nM) according to experimental conditions, followed by incubation for 3 days, under anti-CD3 activation conditions (0.5 μg/ml). For flow cytometry, the cells were treated with anti-CD4-percp antibody and anti-CD25-APC antibody, followed by incubation at 4[…] for 30 minutes, and then the cells were subjected to permeabilization, and then reacted with anti-Foxp3-PE. For analysis of Treg activity, the cells expressing the CD4+CD25+Foxp3+ marker were gated and analyzed. The results were expressed by a bar graph showing the proportion of Foxp3+CD25+ cells occupying in the cultured all CD4+ cells.

[10] = tested on: LPS-stimulated splenocytes; assay: Inflammatory cytokines secreted in LPS-stimulated splenocytes (ELISA); format: cell-based, C57BL/6 mice; details: LPS 100 ng/ml; metformin 1000 uM, rapamycin 100 nM; 3 days
Procedure: Splenocytes obtained from normal C57BL/6 mice were added into a 24-well plate (1×10^6 cells/well), and stimulated by LPS (100 ng/ml), and then treated with metformin (1000 uM) or rapamycin (100 nM) according to experimental conditions, followed by incubation for 3 days. […] Statistical analysis was conducted by using Graph prism (t-test, ANOVA), and values of p<0.05 were considered statistically significant.

[11] = tested on: LPS-stimulated splenocytes; assay: Immunoglobulin (IgG) in culture liquid of LPS-stimulated splenocytes (ELISA); format: cell-based, mouse; details: LPS 100 ng/ml; metformin 1000 uM, rapamycin 100 nM
Procedure: Splenocytes obtained from normal C57BL/6 mice were added into a 24-well plate (1×10^6 cells/well), and stimulated by LPS (100 ng/ml), and then treated with metformin (1000 uM) or rapamycin (100 nM) according to experimental conditions, followed by incubation for 3 days. […] Statistical analysis was conducted by using Graph prism (t-test, ANOVA), and values of p<0.05 were considered statistically significant.
Thereafter, the level of IgG present in the culture liquid was measured by ELISA.

[12] = tested on: collagen-induced arthritis mouse models; assay: Glucose tolerance test and insulin tolerance test in arthritis animal models; format: in vivo; details: arthritis mice after 12 weeks, rapamycin 1 mg/kg
Procedure: The intraperitoneal glucose tolerance test was performed by intraperitoneal injection of glucose at 1 g/kg of body weight after fasting for 12 hours. The insulin tolerance test was performed at 30 minutes interval after the subcutaneous injection of […] at 1 U/kg of body weight.

[13] = rapamycin 0.3 mg/kg s.c. daily 6 weeks, metformin 250 mg/kg oral daily from 3.5 weeks, vs control group (VH)

Structure (SMILES) | increase in mitochondrial respiratory rate by FCCP ([1]; FCCP 3 uM, metformin 1 mM) | mitochondrial respiration capacity (oxygen consumption rate) ([1]; before the treatment with oligomycin, vs control group) | mitochondrial content (MitoTracker) [2] | mitochondrial membrane potential (JC-1 staining) [3] | blood glucose level in intraperitoneal glucose tolerance test (IPGTT) ([4]; glucose 1.5 g/kg i.p. after fasting, rapamycin 0.3 mg/kg, metformin 250 mg/kg) | blood glucose level in insulin tolerance test (ITT) ([4]; insulin 0.8 U/kg s.c. after 5-hr fasting, rapamycin 0.3 mg/kg, metformin 250 mg/kg) | 24-hr urine volume [4, 13] | body weight [4, 13] | allogeneic reactive T cell proliferation ([3H]-thymidine uptake, cpm) [5] | secretion of IFN-γ [6] | non-specific cytotoxicity (MTT) [7] | amount of IL-17 present in the culture liquid [8] | Treg activity (proportion of Foxp3+CD25+ cells in CD4+ cells) [9] | concentration of IL-6 present in the culture liquid [10] | concentration of TNF-α present in the culture liquid [10] | concentration of immunoglobulin (IgG) present in the culture liquid [11] | blood glucose level in intraperitoneal glucose tolerance test ([12]; glucose 1 g/kg i.p. after 12 h fasting, metformin 50 mg/kg) | glucose level in insulin tolerance test, start point of measurement [12] | blood glucose level in insulin tolerance test, after the start point ([12]; metformin 50 mg/kg, vs control group (Vehicle))
CO[C@H]1C[C@@H]2CC[C@@H](C)[C@@](O)(O2)C(=O)C(=O)N2CCCC[C@H]2C(=O)O[C@H]([C@H](C)C[C@@H]2CC[C@@H](O)[C@H](OC)C2)CC(=O)[C@H](C)/C=C(\C)[C@@H](O)[C@@H](OC)C(=O)[C@H](C)C[C@H](C)/C=C/C=C/C=C/1C [rapamycin] | remarkably low | reduced respiration capacity compared with the control group | reduced | not normally maintained | highest blood glucose level among the three groups | highest blood glucose level among the three groups | significantly increased | significant reductions | reduced the cpm values | reduced | no non-specific cytotoxicity | reduced | increased | reduced | reduced | reduced | the highest | the highest | maintained at similar levels
CN(C)C(=N)NC(=N)N [metformin] | – | – | – | – | – | – | – | – | reduced the cpm values | reduced | no non-specific cytotoxicity | reduced | increased | reduced | reduced | reduced | – | – | –
